For data set [1], the system named is MDA-MB-231. Kind of data set: MTT cell viability, MDA-MB-231. Particulars: for IC50: 5% FBS medium, 310 K, mean (standard deviation). Format: cell-based, human.
The subject of another data set is HeLa. The following applies: read-out: IC50 (μM), HeLa; MTT assay, 24 h treatment, 5% FBS medium, 310 K; mean (standard deviation). On the procedure:
(§1) 100 μl of 4×10^4/ml cell suspension (MDA-MB-231, MCF-7, HeLa, SK-OV-3) was placed in each well of the 96-well culture plate and allowed to grow in dulbecco's modified eagle medium or Leibovitz medium (L-15) supplemented with 10% fetal bovine serum overnight. The cells were incubated with serial dilution of compounds at 310 K in 5% fetal bovine serum containing media for 24 h supplied with 5% CO2. At the end of the compounds exposure, 20 μl of 3-(4,5-dimethyl-2-thiazolyl)-2,5-diphenyl-2-H-tetrazolium bromide reagent was added and incubated at 310 K for 4 h. The absorbance of formazan product was measured at 490 nm by a microplate reader (PerkinElmer, Waltham, MA, USA). Cells without peptide were treated as control. *P<0.05, **P<0.01, ***P<0.001 compared with vehicle-treated cells. In Z-VAD-FMK assays, *P<0.05, **P<0.01, ***P<0.001 compared with cells without treatment of Z-VAD-FMK.
For orientation: Tetrazolium assays rely on reduction of a dye to a coloured formazan, in cell work by metabolically active cells.

Another data set deals with MCF-7. The following applies: read-out: IC50 (μM), MCF-7; MTT assay, 24 h treatment, 5% FBS medium, 310 K; mean (standard deviation). The method, then: as §1
The test system of another data set is SK-OV-3. The following applies: read-out: IC50 (μM), SK-OV-3; MTT assay, 24 h treatment, 5% FBS medium, 310 K; mean (standard deviation). The method, then: as §1
A further data set relates to mouse red blood cells. As to the kind of experiment: Haemolytic activity. The format is cell-based. On the procedure:
Fresh mouse red blood cells were collected and centrifuged at 800 rpm for 5 min. The erythrocytes were washed and re suspended in 0.9% NaCl to 10^8/ml. A serial dilution of peptides were added and incubate at 310 K. After 1 h incubation, erythrocytes were centrifuged and the release of hemoglobin was monitored by measuring the absorbance of supernatant at 570 nm by a microplate reader (PerkinElmer).

Data set [2] has as its system MDA-MB-231. As to the kind of experiment: Cell viability with or without caspase inhibitor Z-VAD-FMK. The format is cell-based, human.
The subject of another data set is HEK293T. As to the kind of experiment: Cell viability, non-tumourigenic HEK293T. The following applies: 24 h treatment. The format is cell-based.
The test system of a further data set is MDA-MB-231 tumour. As to the kind of experiment: In vivo fluorescence imaging and tissue distribution. Particulars: Cy5-labelled peptides, n=2. Details: species or system mice. On the procedure: Four-week-old nude mice were purchased from the Vital River (Beijing, China) and allowed to grow for further two weeks. Approximately 1×10^6 MDA-MB-231 cells were injected into the mammary fat pads of female mice in a vehicle of 4 mg/ml Matrigel (Becton Dickinson and Co., New York, NY, USA). One week later, mice bearing tumours around 50 mm^3 in volume were randomly divided into groups for subsequent experiments.
For optical imaging, mice were anesthetized with isoflurane. Cy5-labelled peptides were injected intravenously at a dose of 100 μl, 50 μM. At each time point, mice were again anesthetized and imaged using IVIS Spectrum Pre-clinical In Vivo Imaging System (640 nm/680 nm). Fluorescence in manually set regions of interest was quantified by Living Image. The contrast ratio was calculated by dividing the tumour fluorescence by the chest and abdomen fluorescence.

The subject of the next data set is nude mice. Kind of data set: Acute toxicity in mice. Particulars: 40 mg/kg (200 μl, 4 mg/ml) intravenous, n=3 per group. The format is in vivo. On the procedure: In acute toxicity studies, 12 mice were divided into four groups (n=3 for each group) and administered via intravenous injection with peptide (e8-Uk14, e7-Ur11) at the dose of 20 or 40 mg/kg. In chronic renal toxicity studies, mice were administered via intravenous injection with peptide (e8-Uk14, e7-Ur11) at the dose of 20 mg/kg every other day over a periods of 2 weeks.

Setting [3] is: organs excised 6 h after injection.

Read-outs that look alike come from different tables or passages of the source. Non-standard residues stand in square brackets, D forms with d. Residues, ends and D or L forms follow the SMILES beside them. Aib = CC(C)(N)C(=O)O; Ahx = NCCCCCC(=O)O; βAla = NCCC(=O)O

In the case of `CC(=O)N[C@H](Cc1c[nH]c2ccccc12)C(=O)NCCC(=O)N[C@H](CCCCN)C(=O)N[C@H](CC(C)C)C(=O)NC(C)(C)C(=O)N[C@H](CCCCN)C(=O)N[C@H](CCCCN)C(=O)N[C@H](CC(C)C)C(=O)NC(C)(C)C(=O)N[C@H](CCCCN)C(=O)N[C@H](CC(C)C)C(=O)NC(C)(C)C(=O)N[C@H](CCCCN)C(N)=O` [Uk11] (Ac-[dW][βAla][dK][dL][Aib][dK][dK][dL][Aib][dK][dL][Aib][dK]-NH2), in the data set on MDA-MB-231 [1] (MTT assay, 24 h treatment), the “cytotoxic activity towards MDA-MB-231 cells (in words)” value is “decreased efficiency”.

A word on the IC50: it is the concentration at which inhibition is half-maximal. With `CC(=O)N[C@H](Cc1c[nH]c2ccccc12)C(=O)NCCC(=O)N[C@H](CCCCN)C(=O)N[C@H](CC(C)C)C(=O)NC(C)(C)C(=O)N[C@H](CCCCN)C(=O)N[C@H](CC(C)C)C(=O)NC(C)(C)C(=O)N[C@H](CCCCN)C(=O)N[C@H](CCCCN)C(=O)N[C@H](CC(C)C)C(=O)NC(C)(C)C(=O)N[C@H](CCCCN)C(=O)N[C@H](CC(C)C)C(=O)NC(C)(C)C(=O)N[C@H](CCCCN)C(N)=O` [Uk14] (Ac-[dW][βAla][dK][dL][Aib][dK][dL][Aib][dK][dK][dL][Aib][dK][dL][Aib][dK]-NH2), the IC50 in the data set on MDA-MB-231 [1] (MTT assay, 24 h treatment) is 4.5 µM; in the data set on HeLa, 4.8 µM; in the data set with MCF-7, 4.7 µM; in the data set on SK-OV-3, 5.1 µM. In addition, the haemolytic activity result in the data set on mouse red blood cells was “strong haemolytic activity”. The “effect of caspase inhibitor Z-VAD-FMK on cytotoxic effect” value in the data set with MDA-MB-231 [2] was “did not block”.

Consider `CC(=O)N[C@H](Cc1c[nH]c2ccccc12)C(=O)NCCC(=O)N[C@H](CC(C)C)C(=O)NC(C)(C)C(=O)N[C@H](CCCNC(=N)N)C(=O)N[C@H](CCCNC(=N)N)C(=O)N[C@H](CC(C)C)C(=O)NC(C)(C)C(=O)N[C@H](CCCNC(=N)N)C(=O)N[C@H](CC(C)C)C(=O)NC(C)(C)C(=O)N[C@H](CCCNC(=N)N)C(N)=O` [Ur10] (Ac-[dW][βAla][dL][Aib][dR][dR][dL][Aib][dR][dL][Aib][dR]-NH2), for which, in the data set with MDA-MB-231 [1] (MTT assay, 24 h treatment), the “cytotoxic activity towards MDA-MB-231 cells (in words)” value is “greatly diminished activity”.

As to `CC(=O)N[C@H](Cc1c[nH]c2ccccc12)C(=O)NCCC(=O)N[C@H](CCCNC(=N)N)C(=O)N[C@H](CC(C)C)C(=O)NC(C)(C)C(=O)N[C@H](CCCNC(=N)N)C(=O)N[C@H](CCCNC(=N)N)C(=O)N[C@H](CC(C)C)C(=O)NC(C)(C)C(=O)N[C@H](CCCNC(=N)N)C(=O)N[C@H](CC(C)C)C(=O)NC(C)(C)C(=O)N[C@H](CCCNC(=N)N)C(N)=O` [Ur11] (Ac-[dW][βAla][dR][dL][Aib][dR][dR][dL][Aib][dR][dL][Aib][dR]-NH2), the “cytotoxic activity towards MDA-MB-231 cells (in words)” value in the data set on MDA-MB-231 [1] is recorded as “no change in activity”. Moreover, the IC50 was determined as 8.9 µM with MDA-MB-231 [1] (MTT assay, 24 h treatment); 5.9 µM in the data set with HeLa; 5.6 µM in the data set with MCF-7; 5.1 µM with SK-OV-3. The haemolytic activity entry in the data set on mouse red blood cells is on record as “strong haemolytic activity”. Also, the “effect of caspase inhibitor Z-VAD-FMK on cytotoxic effect” value with MDA-MB-231 [2] is listed as “did not block”.

As for `CC(=O)N[C@H](Cc1c[nH]c2ccccc12)C(=O)NCCC(=O)N[C@H](CCCNC(=N)N)C(=O)N[C@H](CC(C)C)C(=O)NC(C)(C)C(=O)N[C@H](CCCNC(=N)N)C(=O)N[C@H](CC(C)C)C(=O)NC(C)(C)C(=O)N[C@H](CCCNC(=N)N)C(=O)N[C@H](CCCNC(=N)N)C(=O)N[C@H](CC(C)C)C(=O)NC(C)(C)C(=O)N[C@H](CCCNC(=N)N)C(=O)N[C@H](CC(C)C)C(=O)NC(C)(C)C(=O)N[C@H](CCCNC(=N)N)C(N)=O` [Ur14] (Ac-[dW][βAla][dR][dL][Aib][dR][dL][Aib][dR][dR][dL][Aib][dR][dL][Aib][dR]-NH2), the “cytotoxic activity towards MDA-MB-231 cells (in words)” value in the data set on MDA-MB-231 [1] (MTT assay, 24 h treatment) was “no significant improvements”.

Regarding `CC(=O)N[C@H](Cc1c[nH]c2ccccc12)C(=O)NCCC(=O)N[C@H](CCCCN)C(=O)N[C@H](CC(C)C)C(=O)N[C@H](C)C(=O)N[C@H](CCCCN)C(=O)N[C@H](CC(C)C)C(=O)N[C@H](C)C(=O)N[C@H](CCCCN)C(=O)N[C@H](CCCCN)C(=O)N[C@H](CC(C)C)C(=O)N[C@H](C)C(=O)N[C@H](CCCCN)C(=O)N[C@H](CC(C)C)C(=O)N[C@H](C)C(=O)N[C@H](CCCCN)C(N)=O` [ak14], in the data set with MDA-MB-231 [1] (MTT assay, 24 h treatment), the “cytotoxic activity towards MDA-MB-231 cells (in words)” value is listed as “only moderate efficiency” and the IC50 is greater than 30 µM.

Regarding `CC(=O)N[C@H](Cc1c[nH]c2ccccc12)C(=O)NCCC(=O)N[C@H](CCC(=O)O)C(=O)N[C@H](CCC(=O)O)C(=O)N[C@H](CCC(=O)O)C(=O)N[C@H](CCC(=O)O)C(=O)N[C@H](CCC(=O)O)C(=O)N[C@H](CCC(=O)O)C(=O)N[C@H](CCC(=O)O)C(=O)N[C@H](CCC(=O)O)C(=O)NCCCCCC(=O)N1CCC[C@H]1C(=O)N[C@@H](CC(C)C)C(=O)NCC(=O)N[C@@H](CC(C)C)C(=O)N[C@@H](C)C(=O)NCC(=O)N[C@H](CCCCN)C(=O)N[C@H](CC(C)C)C(=O)NC(C)(C)C(=O)N[C@H](CCCCN)C(=O)N[C@H](CC(C)C)C(=O)NC(C)(C)C(=O)N[C@H](CCCCN)C(=O)N[C@H](CCCCN)C(=O)N[C@H](CC(C)C)C(=O)NC(C)(C)C(=O)N[C@H](CCCCN)C(=O)N[C@H](CC(C)C)C(=O)NC(C)(C)C(=O)N[C@H](CCCCN)C(N)=O` [e8-Uk14] (Ac-[dW][βAla][dE][dE][dE][dE][dE][dE][dE][dE][Ahx]PLGLAG[dK][dL][Aib][dK][dL][Aib][dK][dK][dL][Aib][dK][dL][Aib][dK]-NH2), the haemolytic activity entry in the data set on mouse red blood cells (mouse red blood cells 10^8/ml in 0.9% NaCl, 1 h, 310 K, absorbance 570 nm) is “diminished membrane disruption and haemolysis”. In addition, in the data set on HEK293T, the “cytotoxicity against non-tumourigenic HEK293T” value is recorded as “no obvious cytotoxicity”. For the same compound, the “tumour accumulation (in vivo fluorescence imaging)” value with MDA-MB-231 tumour (100 μl 50 μM, tail vein, MDA-MB-231 tumour-bearing mice) is reported as “significantly higher accumulation in tumours compared to unmodified peptides”. Besides, in the data set with MDA-MB-231 tumour (setting [3]), the accumulation in kidney result was “lower accumulation in the kidney”; the accumulation in liver result is “higher accumulation in the liver”; the “uptake in excised tumour” value was “higher compared to UK14 and Ur11”. In the data set on nude mice, the “acute toxicity (survival)” value is “no acute toxicity”.

On to `CC(=O)N[C@H](Cc1c[nH]c2ccccc12)C(=O)NCCC(=O)N[C@H](CC(C)C)C(=O)N[C@H](CC(C)C)C(=O)N[C@H](CC(C)C)C(=O)N[C@H](CC(C)C)C(=O)NC(C)(C)C(=O)NC(C)(C)C(=O)NC(C)(C)C(=O)NC(C)(C)C(=O)N[C@H](CCCCN)C(=O)N[C@H](CCCCN)C(=O)N[C@H](CCCCN)C(=O)N[C@H](CCCCN)C(=O)N[C@H](CCCCN)C(=O)N[C@H](CCCCN)C(N)=O` [lUk] (Ac-[dW][βAla][dL][dL][dL][dL][Aib][Aib][Aib][Aib][dK][dK][dK][dK][dK][dK]-NH2), for which the “cytotoxic activity towards MDA-MB-231 cells (in words)” value in the data set on MDA-MB-231 [1] (MTT assay, 24 h treatment) was “decreased efficiency”.

The values above are taken from paper PMC5629628, “The development of activatable lytic peptides for targeting triple negative breast cancer” (Cell Death Discovery, 2017).
